Results taken from patent US20260130879A1 (IMMUNIC AG, priority 2023, published 2026).
“Also recorded” adds a separate entry of the source. Counter-ions that a name gives are not always drawn.

Assays:
brain lesions = details: animal model of RRMS; cited from earlier work
RRMS patients = details: 12 weeks or 24 weeks; cited from earlier work
BDNF = assay: Induction of BDNF in LPS-stimulated human PBMCs (ELISA); format: cell-based; details: 3 μM, supernatant 14 h
Nurr1 target genes = assay: Microarray gene expression in stimulated human PBMCs; format: cell-based; details: anti-CD3/anti-CD28 stimulated human PBMCs, 20 h
Protocol: Human PBMC isolation was performed similarly as described above. […] Four biological replicates were used per condition. Cells were detached from the cell culture plates by using MACS buffer, were washed with PBS and then resuspended in RLT buffer for subsequent RNA isolation with RNAeasy Mini Kit (Quiagen). 100 ng total RNA per sample were introduced into an RT-IVT reaction. Prior to RT-IVT, the total RNA samples were spiked with in-vitro synthesized polyadenylated transcripts (One-Color RNA Spike-In Mix, Agilent Technologies), which serves as an internal labeling control for linearity, sensitivity and accuracy. The spiked total RNA was reverse transcribed into cDNA and then converted into labeled cRNA by in vitro transcription (Low Input Quick-Amp Labeling Kit One-Color, Agilent Technologies) incorporating Cyanine-3-CTP. All steps were carried out according to the manufacturer's instructions. […] Afterwards, microarrays were washed with increasing stringency using Gene Expression Wash Buffers (Agilent Technologies) followed by drying with acetonitrile (SIGMA). […] Differential gene expression was identified by applying appropriate biostatistics to the data set. GeneSpring GX11 analysis software was used to normalize and analyze the raw data. […] The induced and repressed genes were further characterized for involvement in functional categories (biological processes, molecular functions, cellular components, protein classes and pathways) based on the PANTHER database.

[1] = test system: neurofilament light polypeptide (NFL); assay: Serum neurofilament (NFL) in Phase 2 study in relapsing-remitting multiple sclerosis, patients with no relapses; format: in vivo, human; details: after 24 weeks, RRMS patients with no relapses
Protocol: […]. The study was carried out in accordance with current ICH E6 (Good Clinical Practice) guidelines and the EMA Reflection paper for laboratories that perform the analysis or evaluation of clinical trial samples (EMA/INS/GCP/532137/2010, 28 Feb. 2012). The sample analysis was performed on a Meso QuickPlex SQ 120 analyzer by an ECLIA technique using a validated method.
In order to confirm an effect of IMU-838 on the plasma levels of NFL the subgroup of patients with no relapses was investigated

NFL = details: EXPAND, 12-month; cited from earlier work
[2] = test system: tyrosine hydroxylase (TH); assay: Nurr1 regulated gene expression of TH in T98G cells (qPCR); format: cell-based; details: 16 h
Protocol: (§1) . After 16 h of incubation the medium was removed, cells were washed with phosphate buffered saline (PBS) and after full aspiration of residual liquids immediately frozen at −80° C., until further procession. Total RNA was isolated using E.Z.N.A.® Total RNA Kit I (Omega Bio-tek. Norcross. USA) following the manufacturer's instructions. RNA concentration and purity was assessed using a NanoDrop™ One UV/VIS spectrophotometer (Thermo Fisher Scientific. Waltham. USA) at 260/280 nm. Right before reverse transcription (RT), RNA was linearized at a concentration of 133 ng/μL at 65° C., for 10 min and then immediately incubated on ice for at least 1 min. Reverse transcription was performed using 2 μg total RNA, 20 U Recombinant RNasin® Ribonuclease Inhibitor (Promega, Mannheim, Germany), 100 U SuperScript IV Reverse Transcriptase including 5× First Strand Buffer and 0.1 M dithiothreitol (Thermo Fisher Scientific, Waltham, USA), 3.75 ng linear acrylamide. […] Quantitative polymerase chain reaction (qPCR) was conducted using an Applied Biosystems™ QuantStudio 1 (Waltham, USA) and a SYBR green based detection method. […] PCR product specificity was evaluated using a melting curve analysis ranging from 65 to 95° C. […]

[3] = test system: vesicular amino acid transporter 2 (VMAT2); assay: Nurr1 regulated gene expression of VMAT2 in T98G cells (qPCR); format: cell-based; details: 16 h
Protocol: as §1

SH-SY5Y = assay: Apoptosis assay in SH-SY5Y cells (TNFα and CHX); format: cell-based, human; details: pretreated 1 h, TNFα 50 ng/ml and CHX 20 μg/mL for 6 hours
Protocol: (§2) Cell viability was assessed by flow cytometry after staining the cells with Annexin V and a live/dead dye. Alive cells are defined as […].

N2A = assay: Apoptosis assay in N2A cells (TNFα and CHX); format: cell-based, murine; details: pretreated 1 h, TNFα 50 ng/ml and CHX 20 μg/mL for 6 hours
Protocol: as §2

COc1cccc(-c2ccc(NC(=O)C3=C(C(=O)O)CCC3)c(F)c2)c1 [vidofludimus calcium, vidofludimus calcium salt dihydrate]
reduction in brain lesions vs control treatment (brain lesions): greater reduction in brain lesions
rate of confirmed disability worsening over time vs placebo (RRMS patients): lower rate of confirmed disability worsening
unique active brain lesions vs placebo (RRMS patients): significantly fewer unique active brain lesions

COc1cccc(-c2ccc(NC(=O)C3=C(C(=O)O)CCC3)c(F)c2)c1 [IMU-838, vidofludimus calcium]
BDNF production (BDNF): BDNF is produced
Upregulation A2M (Nurr1 target genes): 1.6
Upregulation BHLHE41 (Nurr1 target genes): 1.5
Upregulation CFB (Nurr1 target genes): 2.4
Upregulation HSD11B1 (Nurr1 target genes): 2.5
Upregulation LTA (Nurr1 target genes): 2.0
Upregulation MARCO (Nurr1 target genes): 2.6
Upregulation NCAM (Nurr1 target genes): 1.6
mean change of NFL (reduction) [1]: 18%

CCc1cc(/C(C)=N/OCc2ccc(C3CCCCC3)c(C(F)(F)F)c2)ccc1CN1CC(C(=O)O)C1 [siponimod]
effect on neurofilament, non-active SPMS (NFL): little or no effect on neurofilament

COc1cccc(-c2ccc(NC(=O)C3=C(C(=O)O)CCC3)c(F)c2)c1 [Example 1, vidofludimus]
gene expression on tyrosine hydroxylase (TH) [2]: dose-dependent gene expression
gene expression on vesicular amino acid transporter 2 (VMAT2) [3]: dose-dependent gene expression

C#CCOc1cccc(-c2ccc(NC(=O)C3=C(C(=O)O)CCC3)c(F)c2)c1 [Example 3, 2-((3-Fluoro-3′-(prop-2-yn-1-yloxy)-[1,1′-biphenyl]-4-yl)carbamoyl)cyclopent-1-ene-1-carboxylic acid]
gene expression on tyrosine hydroxylase (TH) [2]: dose-dependent gene expression
gene expression on vesicular amino acid transporter 2 (VMAT2) [3]: dose-dependent activation; also recorded: dose-dependent gene expression
induction of apoptosis, SH-SY5Y (SH-SY5Y): induction of apoptosis was reduced
induction of apoptosis, N2A (N2A): induction of apoptosis was reduced
